Assay results published in PMC12028158, “Synthesis and In Vitro Evaluation of the Anticancer Effect of Novel Phosphonium Vindoline Derivatives” (International Journal of Molecular Sciences, 2025).

Assays:
Assay type in all cases: cell-based
[1] = tested on: CCRF-CEM; assay: NCI60 one-dose screen; details: Homo sapiens, read-out: Growth percent
[2] = tested on: OVCAR-4; assay: NCI60 one-dose screen; details: Homo sapiens, OVCAR-4, read-out: Growth percent
[3] = tested on: TK-10; assay: NCI60 one-dose screen; details: Homo sapiens, TK-10, read-out: Growth percent
[4] = tested on: NCI-H460; assay: NCI60 one-dose screen; details: Homo sapiens, NCI-H460, read-out: Growth percent
[5] = tested on: T-47D; assay: NCI60 one-dose screen; details: Homo sapiens, T47D, read-out: Growth percent
[6] = tested on: MCF7; assay: NCI60 one-dose screen; details: Homo sapiens, MCF7, read-out: Growth percent
[7] = tested on: SNB-75; assay: NCI60 one-dose screen; details: Homo sapiens, SNB-75, read-out: Growth percent
[8] = tested on: SNB-19; assay: NCI60 one-dose screen; details: Homo sapiens, SNB-19, read-out: Growth percent
[9] = tested on: OVCAR-5; assay: NCI60 one-dose screen; details: Homo sapiens, OVCAR-5, read-out: Growth percent
[10] = tested on: UACC-257; assay: NCI60 one-dose screen; details: Homo sapiens, UACC-257, read-out: Growth percent
[11] = tested on: A549/ATCC; assay: NCI60 one-dose screen; details: Homo sapiens, A549, read-out: Growth percent
[12] = tested on: SK-MEL-5; assay: NCI60 one-dose screen; details: Homo sapiens, SK-MEL-5, read-out: Growth percent
[13] = tested on: UO-31; assay: NCI60 one-dose screen; details: Homo sapiens, UO-31, read-out: Growth percent
[14] = tested on: NCI-H23; assay: NCI60 one-dose screen; details: Homo sapiens, NCI-H23, read-out: Growth percent
[15] = tested on: CAKI-1; assay: NCI60 one-dose screen; details: Homo sapiens, CAKI-1, read-out: Growth percent
[16] = tested on: NCI-H322M; assay: NCI60 one-dose screen; details: Homo sapiens, read-out: Growth percent
[17] = tested on: HCT-15; assay: NCI60 one-dose screen; details: Homo sapiens, HCT-15, read-out: Growth percent
[18] = tested on: NCI-H522; assay: NCI60 one-dose screen; details: Homo sapiens, NCI-H522, read-out: Growth percent
[19] = tested on: IGROV1; assay: NCI60 one-dose screen; details: Homo sapiens, IGROV-1, read-out: Growth percent
[20] = tested on: OVCAR-3; assay: NCI60 one-dose screen; details: Homo sapiens, OVCAR-3, read-out: Growth percent
[21] = tested on: M14; assay: NCI60 one-dose screen; details: Homo sapiens, M14, read-out: Growth percent
[22] = tested on: LOX IMVI; assay: NCI60 one-dose screen; details: Homo sapiens, read-out: Growth percent
[23] = tested on: UACC-257; assay: NCI60 five-dose screen; details: Homo sapiens, UACC-257
[24] = tested on: HCT-15; assay: NCI60 five-dose screen; details: Homo sapiens, HCT-15
[25] = tested on: NCI-H522; assay: NCI60 five-dose screen; details: Homo sapiens, NCI-H522
[26] = tested on: Ovarian Cancer panel; assay: NCI60 five-dose screen, panel mean; details: Homo sapiens, read-out: GI50 Mean
[27] = tested on: RPMI-8226; assay: NCI60 five-dose screen; details: Homo sapiens, RPMI-8226
[28] = tested on: SK-MEL-28; assay: NCI60 five-dose screen; details: Homo sapiens, SK-MEL-28
[29] = tested on: Colon Cancer panel; assay: NCI60 five-dose screen, panel mean; details: Homo sapiens, read-out: GI50 Mean
[30] = tested on: SK-MEL-5; assay: NCI60 five-dose screen; details: Homo sapiens, SK-MEL-5
[31] = tested on: IGROV1; assay: NCI60 five-dose screen; details: Homo sapiens, IGROV-1
[32] = tested on: KM12; assay: NCI60 five-dose screen; details: Homo sapiens, KM12
[33] = tested on: HCC-2998; assay: NCI60 five-dose screen; details: Homo sapiens, HCC 2998
[34] = tested on: MCF7; assay: NCI60 five-dose screen; details: Homo sapiens, MCF7
[35] = tested on: LOX IMVI; assay: NCI60 five-dose screen; details: Homo sapiens
[36] = tested on: Leukemia panel; assay: NCI60 five-dose screen, panel mean; details: Homo sapiens, read-out: GI50 Mean
[37] = tested on: MDA-MB-468; assay: NCI60 five-dose screen; details: Homo sapiens, MDA-MB-468
[38] = tested on: 786-0; assay: NCI60 five-dose screen; details: Homo sapiens, 786-0
[39] = tested on: SF-539; assay: NCI60 five-dose screen; details: Homo sapiens, SF-539
[40] = tested on: Melanoma panel; assay: NCI60 five-dose screen, panel mean; details: Homo sapiens, read-out: GI50 Mean
[41] = tested on: RXF 393; assay: NCI60 five-dose screen; details: Homo sapiens, RXF 393
[42] = tested on: Breast Cancer panel; assay: NCI60 five-dose screen, panel mean; details: Homo sapiens, read-out: GI50 Mean
[43] = tested on: CAKI-1; assay: NCI60 five-dose screen; details: Homo sapiens, CAKI-1
[44] = tested on: HCT-116; assay: NCI60 five-dose screen; details: Homo sapiens, HCT-116
[45] = tested on: Non-small Cell Lung Cancer panel; assay: NCI60 five-dose screen, panel mean; details: Homo sapiens, read-out: GI50 Mean
[46] = tested on: MALME-3M; assay: NCI60 five-dose screen; details: Homo sapiens, Malme-3M

CCC12C=CCN3CC[C@@]4(c5ccc(OC)cc5N(C)[C@H]4[C@@](O)(C(=O)OC)[C@@H]1OC(C)=O)[C@@H]32 (some centres unmarked) [compound 2, vindoline]
activity at 10 µM [1]: 96.5% | activity at 10 µM [2]: 98.8% | activity at 10 µM [3]: 92.1% | activity at 10 µM [4]: 104% | activity at 10 µM [5]: 95.7% | activity at 10 µM [6]: 99% | activity at 10 µM [7]: 73.1% | activity at 10 µM [8]: 96.6% | activity at 10 µM [9]: 91.2% | activity at 10 µM [10]: 98.7% | activity at 10 µM [11]: 93.5% | activity at 10 µM [12]: 102% | activity at 10 µM [13]: 83.9% | activity at 10 µM [14]: 103% | activity at 10 µM [15]: 97.5% | activity at 10 µM [16]: 97.8% | activity at 10 µM [17]: 99% | activity at 10 µM [18]: 88.5% | activity at 10 µM [19]: 98.4% | activity at 10 µM [20]: 112% | activity at 10 µM [21]: 104% | activity at 10 µM [22]: 99.4%

CC[C@]12C=CCN3CC[C@@]4(c5ccc(OC)cc5N(C)[C@H]4[C@@](O)(C(=O)OC)[C@@H]1OC(=O)CCCC[P+](c1ccccc1)(c1ccccc1)c1ccccc1)[C@@H]32 [compound 4, reference compound]
GI50 [23]: 215 nM | GI50 [24]: 18.6 µM | activity at 10 µM [1]: 15.6% | GI50 [25]: 229 nM | activity at 10 µM [2]: 5.22% | activity at 10 µM [3]: 48.6% | activity at 10 µM [4]: 18.4% | GI50 [26]: 15.1 µM | activity at 10 µM [5]: 4.99% | GI50 [27]: 497 nM | GI50 [28]: 532 nM | GI50 [29]: 3.19 µM | GI50 [30]: 1710 nM | activity at 10 µM [6]: 4.69% | GI50 [31]: 553 nM | activity at 10 µM [7]: -12.8% | GI50 [32]: 442 nM | GI50 [33]: 367 nM | GI50 [34]: 322 nM | GI50 [35]: 1170 nM | activity at 10 µM [8]: 12.7% | GI50 [36]: 600 nM | activity at 10 µM [9]: 23.8% | GI50 [37]: 170 nM | activity at 10 µM [10]: 2.15% | activity at 10 µM [11]: 22.1% | activity at 10 µM [12]: -72.9% | activity at 10 µM [13]: 81.9% | GI50 [38]: 2900 nM | GI50 [39]: 1300 nM | activity at 10 µM [14]: 6.4% | GI50 [40]: 750 nM | activity at 10 µM [15]: 85.9% | activity at 10 µM [16]: 47% | activity at 10 µM [17]: 99.3% | GI50 [41]: 308 nM | activity at 10 µM [18]: -5.5% | GI50 [42]: 500 nM | GI50 [43]: 2820 nM | activity at 10 µM [19]: -36.4% | activity at 10 µM [20]: -0.29% | GI50 [44]: 1060 nM | activity at 10 µM [21]: 29.4% | activity at 10 µM [22]: 18.5% | GI50 [45]: 1440 nM | GI50 [46]: 273 nM
